Measured values from BindingDB's records for doi:10.1016/j.bmcl.2008.02.001 (Cephalon, 2008).

Test: Inhibition of VEGF-stimulated VEGFR2 autophosphorylation in HUVEC cells […] relative to control

Work on `CO/N=C(\C)c1ccc2c(c1)c1c3c(c4c(c1n2CC(C)C)CCc1nn(C)cc1-4)C(=O)NC3` [7-[(1E)-1-(methoxyimino)ethyl]-19-methyl-3-(2-methylpropyl)-3,13,19,20-tetraazahexacyclo[14.7.0.0^{2,10}.0^{4,9}.0^{11,15}.0^{17,21}]tricosa-1(16),2(10),4,6,8,11(15),17,20-octaen-14-one] yielded an IC50 of 4 nM.
